Data from patent US20250327046A1, “ROLE OF POLYPHOSPHATES IN NEUROLOGICAL DISORDERS” (UNIVERSITY OF MASSACHUSETTS, priority 2021, published 2025).

Tested on: mutSOD1 mice
Assay: Survival of mutSOD1 mice (mouse model of ALS)
Format: in vivo
Settings: FIG. 10B, polyP neutralizing cationic polyamine
Source text: Hemizygous transgenic mice carrying mutant human SOD1^G93A (high copy number; B6SJL; Cat. #002726), wild-type human SOD1^WT (B6SJL; Cat. #002297) and TARDBP^A315T (C57BL/6J; Cat. #010700) transgenes were obtained from Jackson Laboratories (Bar Harbor, Maine, USA). Hemizygous transgenic mice (background B6SJLF/J) carrying C9ORF72 hexanucleotide repeats (˜500) in intron were generated by Robert Brown (Peters et al., 2015). All mice were maintained and bred at the animal facility of Universidad Andres Bello. The presence of the human SOD1transgene, the human TARDBP transgene and the human C9ORF72 transgene were validated by polymerase chain reaction as previously described. Transgenic males were crossed with WT females (B6SJL or C57BL/6J) from the corresponding background; these non-transgenic littermates (NTg) were used as internal controls for all experiments. The SOD1^G93A (mutSOD1) mice, but not the hSOD1WT (wtSOD1) mice, develop signs of neuromuscular deficits (tremor of the legs and loss of extension reflex of the hind paws) starting at 3 months of age and have an average lifespan of 133-147 days. […]
In this Example, polyP neutralizing molecules including a dendrimer (e.g., G3-PAMAM-NH2) and a cationic polyamine (e.g., spermidine) were evaluated as potential therapies for neurological disorders using a mouse model of ALS. […]

NCCCCNCCCN [spermidine]
survival of mutSOD1 mice (in words): prolonged survival
